Measurements published in paper PMC9858427, “Design, synthesis and biological evaluation of 2-((4-sulfamoylphenyl)amino)-pyrrolo[2,3-d]pyrimidine derivatives as CDK inhibitors” (Journal of Enzyme Inhibition and Medicinal Chemistry, 2023).
“Also recorded” adds a separate entry of the source. Like-named read-outs stand apart in the source and are kept apart here.

Experiments:
[1] = test system: BxPC-3; assay: MTT proliferation assay in BxPC-3 cells; assay type: cell-based; settings: Homo sapiens, 72 h drug exposure
Protocol: (§1) The human pancreatic carcinoma MIA PaCa-2 was purchased from China Centre for Type Culture Collection, AsPC-1 and BxPC-3 cell Lines were purchased from Cell Centre of the Institute of Basic Medical Sciences, Chinese Academy of Medical Sciences and Peking Union Medical College. PANC-1 was kindly provided by Nankai Hospital (Tianjin, China). These cancer cell lines were cultured according to the manufacturer’s instruction.
(§2) Cells were planted in 96-well plates at a density of 3000–4000 cells per well and incubated at 37 °C in a humidified CO2 incubator for 24 h. Then 3-fold diluted concentrations of tested compound were added respectively which was dissolved by DMSO in the ratio of 1:1000. After indicated incubation period, MTT was added to each well and incubated for 4 h at 37 °C. Then, the supernatant was discarded gently, and the precipitate was dissolved in 100 µL of DMSO in each well. The absorbance (A) at 570 nm was detected with a microplate reader (Multiskan MK3; Thermo Fisher Scientific, MA, USA). Vehicle-treated cells were served as the control for the calculation of relative cell viability (%) of treated group at single concentration. IC50 value was calculated directly from the inhibition curve of serial dilution of test compound and was expressed as mean ± SD using the SPSS statistical software (SPSS17.0 Inc., Chicago, IL, USA).

[2] = test system: MIA PaCa-2 cells; assay: Cell viability after CDK9 knockdown by siRNA; assay type: cell-based, human; settings: siCDK9 50 nM; compound 0.2 µM, 72 h
Protocol: as §2
Specific siRNAs against CDK9 (Catelog ID: SIGS0004694-1) were purchased from RiboBio (Guangdong, China) together with a scrambled siRNA. […] Approximately 48 h after transfection, the cells were analysed for protein expression by Western blot. […]

[3] = Oral PK study in rats; assay type: in vivo; settings: male, SD, rat, plasma, 30 mg/kg
Protocol: Synthetic compound was administered as a suspension or solution in the saline with 5% DMSO and 5% Solutol. GCTB was dissolved in saline. All of the experiments were approved by the Institutional Animal Care and Use Committee of Institute of Medicinal Biotechnology. All experiments were carried out under ethics committee–approved protocols and in compliance with the guidelines for the care of laboratory animals of Institute of Medicinal Biotechnology, CAMS.
SD rats were purchased from Beijing Vital River Laboratory Animal Technology Co., Ltd and randomly divided into three groups (n = 3, male). The animals were housed under standard conditions and fastened for 12 h before the treatment. They had free access to water and consumed a standard laboratory diet from 4 h after administration. Blood was taken from the orbital venous plexus at 0, 0.083, 0.25, 0.5, 1, 2, 4, 6, 8, and 24 h after intragastric administration of the test compound (30 mg/kg). The blood samples were collected into heparin anticoagulated EP tubes and centrifuged at 8000 r/min for 5 min at 2−8 °C; the plasma was separated and stored at −70 °C for use. Plasma was centrifuged at 4000 rpm for 10 min at 2−8 °C and stored at −70 °C until analysis. Plasma samples were analysed by LC-MS/MS (AB Sciex API4000 QTRAP) equipped with an ESI ion resource and Analyst 1.5.1 software. The noncompartmental model analysis was used for calculating pharmacokinetic parameters with the WinNolin professional v6.3 program (Pharsight, USA).

[4] = test system: MIA PaCa-2 cells; assay: MTT proliferation assay in MIA PaCa-2 cells; assay type: cell-based, human; settings: Homo sapiens, MIA PaCa-2, 72 h drug exposure
Protocol: as §1
as §2, with “Then” for “Cells were planted in 96-well plates at a density of 3000–4000 cells per well and incubated at 37 °C in a humidified CO2 incubator for 24 h. Then”

[5] = test system: phosphorylation of Rb and RNA polymerase II, Mcl-1 and c-Myc protein; assay: Immunoblots of CDK downstream proteins in MIA PaCa-2 cells; assay type: cell-based, human; settings: 6 h exposure
Protocol: Harvested cells were lysed in 20 mmol/L Tris pH 7.7, 100 mmol/L NaCl, 20 mmol/L β-glycerophosphate, 5 mmol/L MgCl2, 1 mmol/L NaF, 0.1% Triton X-100, 5% glycerol plus freshly added 1 mmol/L DTT, 0.1 µmol/L okadaic acid, 1 mmol/L sodium vanadate, and cOmplete Mini Protease Inhibitor Tablets (Roche, #11836170001). For SDS-PAGE, equal amounts of protein/lane were loaded. After gel transfer onto PDV membrane, immunoblots were performed using the following antibodies: CDK9 (Cell Signalling Technology #C12FT; 1:1,000), RNA polymerase II (Abcam #ab5131; 1:1000), MCL-1 (Abcam #Y37; […] (Cell Signalling Technology #d2b12; 1:1,000), c-Myc (Abcam #YB69; 1:1000). Secondary antibodies were from Cell Signalling Technology (#7076 or #7074). ECL detection was performed.

[6] = test system: PANC-1; assay: MTT proliferation assay in PANC-1 cells; assay type: cell-based; settings: Homo sapiens, 72 h drug exposure
Protocol: as §1, §2

Question: Which IC50 [1] does the source give for `CN(C)C(=O)c1cc2cnc(Nc3ccc(S(N)(=O)=O)cc3)nc2n1C1CCCC1` [compound 2g, 7-Cyclopentyl-N,N-dimethyl-2-((4-sulfamoylphenyl)amino)-7H-pyrrolo[2,3-d]pyrimidine-6-carboxamide] here?
Answer: Its IC50 is 0.226 ± 0.065 µM.

Question: What about the “sensitivity of MIA PaCa-2 cells to compound after downregulation of CDK9 by siRNA” value [2] of the same molecule?
Answer: Its value is “significantly decreased”.

Question: And the Cmax ([3]; single oral administration, read-out: maximum plasma drug concentration (Cmax))?
Answer: The Cmax was 1160 ng/mL.

Question: And the AUC ([3]; single oral administration, read-out: systematic exposure (AUC0‑t))?
Answer: Its AUC is 4620 ng·h/mL.

Question: And the AUC(0-inf) ([3]; oral, n = 3)?
Answer: Its AUC(0-inf) is 5080 ± 268 ng·h/mL.

Question: And the AUC(0-t) ([3]; oral, n = 3)?
Answer: Its AUC(0-t) is 4620 ± 145 ng·h/mL.

Question: And the MRT ([3]; oral, n = 3)?
Answer: Its MRT is 7.72 h.

Question: And the Tmax ([3]; oral, n = 3)?
Answer: Its Tmax is 30 min.

Question: What about the half-life ([3]; oral, n = 3) of the same molecule?
Answer: Its half-life is 452 min.

Question: What about the Cmax ([3]; oral, n = 3, read-out: Cmax) of the same molecule?
Answer: Its Cmax is 2700 nM.

Question: What about the IC50 [4] of the same molecule?
Answer: Its IC50 is 0.52 ± 0.67 µM.

Question: And the “Mcl-1 and c-Myc protein level” value [5]?
Answer: The value was “down-regulation of Mcl-1 and c-Myc protein”.

Question: And the “phosphorylation of Rb and RNA polymerase II” value [5]?
Answer: The value was “down-regulation of phosphorylated Rb protein; also recorded: inhibited the phosphorylation of Rb and RNA polymerase II”.

Question: What about the IC50 [6] of the same molecule?
Answer: The IC50 was 11 ± 4.97 µM.
